Legend:
[1] = test system: fasted mice given oral fat overload; assay: Effect on triglycerides absorption in mouse; type: in vivo; details: for decrease of fatty acids absorption (plasma triglycerides AUC): up to 6 hours, p<0.05
Method: (§1) Figure 4 The mechanism-based efficacy of OBE-2008 on enteropeptidase was evaluated based on triglycerides (left) and amino acids (right) absorption. Red = control; dark green = dose of 5 mg/kg; light green = dose of 50 mg/kg. Number of mice per group n = 3 (right) for amino acids, and n = 8 (left) for triglycerides. Statistical comparison between control and treated group were conducted by two-sided unpaired Student’s tests. Asterisks (*) indicate p values versus control. A p value of<0.05 was considered to show a statistically significant difference.
The aim of the study was to evaluate the duration of effect of OBE lead on triglycerides absorption in mice after oral administration. The study involved 3 groups of 8 male animals each. Group 1: water; Group 2: OBE lead at 5 mg/kg; Group 3: OBE lead at 50 mg/kg. On the day of the test, all animals were given an oral fat overload. The preparation to be administered (OBE lead or its vehicle) was diluted at 1/100 in 10 mL of clinoleic acid 20. In all animals, about 60 µL were sampled via retro orbital sinus at time points: before dosing, 1, 2, 3, 5 and 6 hours post-dosing. The blood samples were prepared within 30 minutes of sampling by centrifugation for 10 minutes at 1500 g. All plasma samples were dosed for triglycerides. The effects of test items on triglycerides absorption were conducted by two-side unpaired Student’s test. A p value of<0.05 was considered to show a statistically significant difference.

[2] = test system: fasted mice given radiolabeled proteins; assay: Effect on 14C-protein absorption in mouse; type: in vivo, male Swiss mice; details: 240 minutes, not statistically significant
Method: as §1
The aim of the study was to evaluate the duration of effect of OBE lead on absorption of ^14C-proteins after oral administration in mice. Fifteen male Swiss mice were divided in 3 groups; Group 1: water and ^14C-proteins; Group 2: OBE lead 5 mg/Kg and ^14C-proteins; Group 3: OBE lead 50 mg/Kg and ^14C-proteins. A preparation containing 5 ml of Clinoleic 20 (Baxter Ref DDB9500) with 1 g of glucose (Sigma; ref:G8270) and 1 g of casein (Sigma; ref: C3400) was prepared. […] About 4 ml Pico-fluor 40 was added and after shaking, the total radioactivity contained within the different samples was determined by liquid scintillation using a Packard 1900 CA spectrometer equipped with an external standard system. […]

[3] = test system: mouse model of diet-induced obesity (DIO); assay: Long term effect in mice fed with DIO regimen; type: in vivo, male Swiss mice
Method: Figure 3 Effect of OBE-2008 administered before night phase on food consumption (left) and body weight (right) in mice. Red = control; dark green = dose of 10 mg/kg/day; light green = dose of 25 mg/kg/day. Number of mice per group n = 10. Statistical comparison between control and treated group were conducted by Dunnett’s tests. Asterisks (*) indicate p values versus control. A p value of<0.05 was considered to show a statistically significant difference.
The anti-obesity effect of OBE lead in a diet induced obesity model (45% kcal from lipids and 20% from proteins, reference 824053 from Special Diet Services, UK) was evaluated following daily oral administration in mice for 63 days. The study involved 3 groups of 10 male Swiss mice; Group 1: water; Group 2: OBE lead at 10 mg/kg/day; Group 3: OBE lead at 25 mg/kg/day. Animal were weighted daily. Food consumption was measured daily for each animal, except during fasted periods. For all groups, the food was given ad libitum. Body weights are given as means ± SEM (Standard Error of the Mean). The effects of test items on body weight and food consumption were expressed as absolute values and compared with those of the vehicle using multiple comparison procedure with a Dunnett’s test in case of significance (P≤0.05).

[4] = Pharmacokinetics in mice, IV and oral; type: in vivo, male Swiss mice
Method: Figure 5 Pharmacokinetics of OBE-2008 in mice following intravenous (1 mg/kg, dark blue) and oral (10 mg/kg, light blue) dosing. Number of mice per group n = 3.
This study aimed to determine the fate of OBE lead in mice after intravenous (IV; 1 mg/kg) and oral (PO; 10 mg/kg) administration. Blood was taken from two animals at each sampling time from T = 0 to T = 6 h after IV administration, and from T = 0 to T = 24 h after oral administration. Samples were analyzed for OBE lead using LC/MS/MS methodology. For each IV and PO routes, three male Swiss mice aged 10-weeks were included in the experiment. The animals OBE IV-1, OBE IV-2 and OBE IV-3 were treated at T = 0 with 1 mg/kg of OBE lead using 2 mL/kg. The injection was performed in the jugular vein under isoflurane anaesthesia. The animals OBE PO-1, OBE PO-2 and OBE PO-3 were treated at T = 0 with 10 mg/kg of OBE lead using 5 mL/kg. The solution to be administered was delivered by gavage, using a gastric cannula. About 50–75 µL of blood were sampled from the retro orbital sinus. The blood was immediately centrifuged at 3500 rpm (+4°C) for 5 minutes. Protein precipitation was conducted by adding a volume of 400 µL of acetonitrile to 10 µL of plasma in Teflon vials. After centrifugation, an aliquot of the supernatant (+4°C auto-sampler; injected volume = 10 µL) was immediately analyzed by LC/MS/MS (column: HILIC Silica 5 µM 2.1×150 mm; isocratic elution using an ACN/pH3 buffer (70/30, V/V) eluant containing 1% formic acid; flow rate = 0.25 mL/min. The MS system operated in the ESI mode, and the ionization source was heated at 350°C). Chromatographic peaks areas were than calculated and plotted against time.

- detectability in plasma ([4]; intravenous 1 mg/kg): undetectable after 2 hours
- plasma half-life ([4]; intravenous 1 mg/kg): minutes
- calculated bioavailability ([4]; oral 10 mg/kg vs intravenous 1 mg/kg): 2–3%
Compound: CC(=O)N[C@@H](C)C(=O)N[C@@H](Cc1ccccc1)C(=O)N[C@@H](CCCCN)B1O[C@@H]2C[C@@H]3C[C@@H](C3(C)C)[C@]2(C)O1 [OBE-2008]
- maximum level of triglycerides in plasma after 1 hour vs control ([1]; 5 mg/kg and 50 mg/kg oral): substantially lower than in the control group
- decrease of fatty acids absorption (plasma triglycerides AUC) ([1]; 5 mg/kg oral): 33%
- decrease of fatty acids absorption (plasma triglycerides AUC) ([1]; 50 mg/kg oral): 32%
- decrease of total protein absorption (AUC) ([2]; 5 mg/kg oral): 17%
- decrease of total protein absorption (AUC) ([2]; 50 mg/kg oral): 22%
- side effects such as steatorrhea or diarrhea ([3]; long-term oral treatment): no side effects
- reduction of weight gain relative to control group ([3]; oral 10 mg/kg daily, up to 9 weeks): 6%
- reduction of weight gain relative to control group ([3]; oral 25 mg/kg daily, up to 9 weeks): 10%
- effect on food consumption ([3]; oral daily 10 and 25 mg/kg, up to 9 weeks, food ad libitum): no effect

— article PMC3504148, “Enteropeptidase: A Gene Associated with a Starvation Human Phenotype and a Novel Target for Obesity Treatment” (PLoS ONE, 2012)
